Counter-ions that a name gives are not always drawn.
Legend:
[1] = system: bacterial strains that express KPC β-lactamases; assay: Synergy MIC / standard BLI potentiation MIC assay, strains expressing KPC β-lactamases; format: cell-based, isogenic E. coli and clinical isolates; conditions: more active for at least one KPC strain and/or better spectrum; comparator Avibactam
In short: (§1)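 Broth microdilution in CAMHB per CLSI M07-A9, ~10^5 CFU/mL inoculum, 18–20 h at 37 °C with aeration; engineered E. coli kept with 25 μg/mL tetracycline. β-lactam 2-fold from 128 to 0.13 μg/mL with BLI fixed at 4 μg/mL, or BLI serially diluted with β-lactam fixed; MIC is lowest concentration without visible turbidity.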

[2] = system: bacterial strains that express the class D cephalosporinase OXA-15; assay: Synergy MIC / standard BLI potentiation MIC assay, strains expressing OXA-15; format: cell-based, E. coli; conditions: in presence of a β-lactam; comparator Avibactam (CCC)
In short: as §1

Compound	activity and/or spectrum of activity against bacterial strains that express KPC β-lactamases, compared with Avibactam [1]	activity against bacterial strains that express OXA-15, compared with Avibactam [2]
O=C1N2C[C@@H](CC[C@H]2c2nnc(CCCC3CNC3)o2)N1OS(=O)(=O)O [Compound 743, (2S,5R)-2-(5-(3-(azetidin-3-yl)propyl)-1,3,4-oxadiazol-2-yl)-7-oxo-1,6-diazabicyclo[3.2.1]octan-6-yl hydrogen sulfate]	more active than Avibactam	more active than Avibactam
N[C@H]1C[C@H](CCc2nnc([C@@H]3CC[C@@H]4CN3C(=O)N4OS(=O)(=O)O)o2)C1 [Compound 753, (2S,5R)-2-(5-(2-((1r,3R)-3-aminocyclobutyl)ethyl)-1,3,4-oxadiazol-2-yl)-7-oxo-1,6-diazabicyclo[3.2.1]octan-6-yl hydrogen sulfate]	more active than Avibactam	more active than Avibactam
O=C1N2C[C@@H](CC[C@H]2c2nnc(CN[C@@H]3CCNC3)o2)N1OS(=O)(=O)O [Compound 766, (2S,5R)-7-oxo-2-(5-(((R)-pyrrolidin-3-ylamino)methyl)-1,3,4-oxadiazol-2-yl)-1,6-diazabicyclo[3.2.1]octan-6-yl hydrogen sulfate]	more active than Avibactam	more active than Avibactam
O=C1N2C[C@@H](CC[C@H]2c2nnc(CN[C@H]3CCNC3)o2)N1OS(=O)(=O)O [Compound 765, (2S,5R)-7-oxo-2-(5-(((S)-pyrrolidin-3-ylamino)methyl)-1,3,4-oxadiazol-2-yl)-1,6-diazabicyclo[3.2.1]octan-6-yl hydrogen sulfate]	more active than Avibactam	more active than Avibactam
N=C(N)N1CC(c2nnc([C@@H]3CC[C@@H]4CN3C(=O)N4OS(=O)(=O)O)o2)C1 [Compound 709, (2S,5R)-2-(5-(1-carbamimidoylazetidin-3-yl)-1,3,4-oxadiazol-2-yl)-7-oxo-1,6-diazabicyclo[3.2.1]octan-6-yl hydrogen sulfate]	more active than Avibactam	more active than Avibactam
O=C1N2C[C@@H](CC[C@H]2c2nnc(CCNC3CCNCC3)o2)N1OS(=O)(=O)O [Compound 770, (2S,5R)-7-oxo-2-(5-(2-(piperidin-4-ylamino)ethyl)-1,3,4-oxadiazol-2-yl)-1,6-diazabicyclo[3.2.1]octan-6-yl hydrogen sulfate]	more active than Avibactam	more active than Avibactam
O=C1N2C[C@@H](CC[C@H]2c2nnc(CCCCNC3CCNCC3)o2)N1OS(=O)(=O)O [Compound 772, (2S,5R)-7-oxo-2-(5-(4-(piperidin-4-ylamino)butyl)-1,3,4-oxadiazol-2-yl)-1,6-diazabicyclo[3.2.1]octan-6-yl hydrogen sulfate]	more active than Avibactam	more active than Avibactam
NC1(Cc2nnc([C@@H]3CC[C@@H]4CN3C(=O)N4OS(=O)(=O)O)o2)CC1 [Compound 724, (2S,5R)-2-(5-((1-aminocyclopropyl)methyl)-1,3,4-oxadiazol-2-yl)-7-oxo-1,6-diazabicyclo[3.2.1]octan-6-yl hydrogen sulfate]	more active than Avibactam	more active than Avibactam

— US8933233B2, “1,3,4-oxadiazole and 1,3,4-thiadiazole β-lactamase inhibitors” (priority 2012, dated 2015)
